Consider 5 compounds from US20250051266A1, “Novel GLV-Phenolamide: Biosynthesis and Function in Protecting Plants from Herbivore Attack” (Max-Planck-Gesellschaft zur Förderung der Wissenschaften …, priority 2021, published 2025).

One data set concerns the target T1, NaPPO1 (Nicotiana attenuata, UniProt A0A1J6JLI9).
T1 sequence (A0A1J6JLI9 1-596): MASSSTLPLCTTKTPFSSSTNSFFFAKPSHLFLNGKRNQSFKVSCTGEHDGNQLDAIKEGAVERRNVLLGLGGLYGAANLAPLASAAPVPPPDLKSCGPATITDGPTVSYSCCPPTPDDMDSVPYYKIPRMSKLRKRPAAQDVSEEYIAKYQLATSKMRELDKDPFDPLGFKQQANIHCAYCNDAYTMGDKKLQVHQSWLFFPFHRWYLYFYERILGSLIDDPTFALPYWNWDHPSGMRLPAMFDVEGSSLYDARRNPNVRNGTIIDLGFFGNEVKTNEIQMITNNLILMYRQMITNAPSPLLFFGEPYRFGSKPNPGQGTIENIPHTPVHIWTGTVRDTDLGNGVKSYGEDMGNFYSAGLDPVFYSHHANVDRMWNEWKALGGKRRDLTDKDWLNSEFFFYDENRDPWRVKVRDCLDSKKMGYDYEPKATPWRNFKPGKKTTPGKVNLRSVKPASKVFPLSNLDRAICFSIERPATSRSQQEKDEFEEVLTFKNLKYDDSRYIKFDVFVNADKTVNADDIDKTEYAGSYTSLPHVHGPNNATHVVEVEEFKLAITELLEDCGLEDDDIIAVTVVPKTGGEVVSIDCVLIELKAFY
Put plainly: In vitro enzyme assay, substrate specificity of NaPPO1. Format: biochemical. The source says:
(§1) Extracted ion chromatograms (EIC) for doubly charged CP dimer (m/z 250.13) and m/z 347.19 in E. coli expressing NaPPO1 and NaPPO2 with CP and Z3H or (E)-2-hexenal. Compounds 1, 2, 3, 4 denote isomers of CP dimer; compounds 5, 6 denote isomers of m/z 347.19.
(§2) FIG. 53 Substrate specificity of NaPPO1 and NaPPO2 enzymes. Overlay of total ion chromatograms (TIC) of enzyme assays for authentic chlorogenic acid (CGA std), N-coumaroylputrescine (CoP std), (Z)-3-hexenal or (E)-2-hexenal with purified NaPPO1/NaPPO2 from E. coli. Compounds 1 and 2 denote CGA and CoP; 3 and 4 denote contamination peaks from (Z)-3-hexenal and CoP standards, respectively.
(§3) To test this hypothesis, purified NaPPO1, NaPPO2 and NaBBL2 proteins with N-terminal hexahistidine tags after expression in Escherichia coli were isolated (FIGS. 44-45). Incubation of either NaPPO1 or NaPPO2 (NaPPO1/2) with CP and (Z)-3-hexenal yielded a m/z 347.19 peak with identical MS/MS spectrum and retention time as the m/z 347.19 induced in N. attenuata leaves (FIG. 46). Additionally, by-products of doubly charged CP dimers at m/z 250.13 ([M+2H]2+, C26H36N4O62+) which are not detected in oral secretion-induced leaves of N. attenuata WT (Data 2) were also produced in vitro (FIG. 16 and FIG. 47). These doubly charged CP dimers were only produced when the quantities of the (Z)-3-hexenal substrate were lower than those of the CP substrate in vitro. […]
(§4) In vitro assays of NaPPO1, NaPPO2, and NaBBL2: NaPPO1, NaPPO2, and NaBBL2 enzyme activity assays were performed by incubating 100 μg of the purified recombinant protein in 84 mM acetate buffer (pH 4.8) containing 20 mM (E)-N-caffeoylputrescine (BOC Sciences, catalogue #: B0005-053482) and 1 M cis-3-hexenal (Sigma, catalogue #: W256102-SAMPLE-K) or trans-2-hexenal (Sigma, catalogue #: W256005-1KG-K). During incubation of the enzyme reactions at 8° C., 1 μL of the reactions buffer was directly injected and analyzed by LC-MS every h to detect products. […]

Another data set concerns the target NaPPO2 (Nicotiana attenuata, UniProt A0A1J6IKE9). Put plainly: In vitro enzyme assay, substrate specificity of NaPPO2. Format: biochemical.
Excerpt: as §1, §2, §3, §4

Data set [1] can be described thus: Stability of m/z 347.19 during sample extraction and purification. Format: physicochemical. The text has this: (§5) To elucidate the chemical structure of m/z 347.19, it was attempted to isolate and purify the m/z 347.19 using induced N. attenuata leaf material and enzyme assay-derived products. However, several attempts failed due to the instability of m/z 347.19. […] These observations indicate that m/z 347.19 is reactive and unstable at high pH. The purification procedures for m/z 347.19 were modified to produce large quantities from enzymatic assays under weak acidic conditions and purified m/z 347.19 using solid phase extraction under argon atmospheres. The purified m/z 347.19 was then subjected to NMR analysis, which elucidated its structural identity as a CP-5-(Z)-3-hexenal compound (hereafter named CPH) (FIG. 54). […] CPH contains both a reactive moiety of a, 3-unsaturated aldehyde derived from (Z)-3-hexenal, which is electrophilic, and an amine feature of the caffeoylputrescine, which is nucleophilic.

Data set [2] in a line: Estimation of half-life of m/z 347.19 by NMR time acquisitions. Format: physicochemical. As to conditions: acidified methanol-d3 (0.1% formic acid), room temperature, darkness.
Excerpt: FIG. 55 Estimation of half-life of m/z 347.19. Different time acquisitions of NMR spectra for purified m/z 347.19 are shown.
as §5

A further data set deals with Empoasca decipiens. Put plainly: In vitro Empoasca non-choice (direct feeding) assay on artificial diet. As to conditions: for changes in mortality rates of E. decipiens compared to glucose controls: physiologically relevant concentrations (CoP 7 μM, CP 100 μM, FP 10 μM) in 10% glucose solution. The class given is in vivo. The method, then: FIG. 18 Mortality rates of in vitro Empoasca non-choice assays (n=4, 25 Empoasca leafhoppers per replicate) in which Empoasca were fed for 6 h with either 1 μM m/z 347.19 synthesized by using NaPPO1/NaPPO2 and CP and Z3H and diluted in 10% glucose solution or with 10% glucose as control (top). Empoasca in planta choice assays (n=8) conducted with VIGS plants of EV, PPO1, PPO2 and AT1 (bottom).
To test if CPH is responsible for Empoasca resistance, E. decipiens were fed with physiologically relevant concentrations of 1 μM (estimated from field-collected elicited leaves) of NMR-confirmed CPH in diets containing 10% glucose in vitro. […] NaAT1 expression was silenced in N. attenuata plants using VIGS, which disrupted the production of both CP and the CPH (Li et al., Proc Natl Acad Sci USA 112, E4147-4155 (2015)) (FIG. 13).
Empoasca feeding assays: The survival rate of Empoasca feeding on artificial diet (10% 5 sucrose in water) supplemented with caffeoylputrescine (CP, 100 μM), coumaroylputrescine (CoP, 7 μM), feruloylputrescine (FP, 10 μM), or the m/z 347.19 hexenyl derivative of CP (CPH, 1 μM) was recorded every 1 h overnight. The artificial feeding devices consisted of a 50-mL Falcon tube with a 7-mm hole drilled into the conical bottom through which the leafhoppers were aspi-rated into the tube and which then was covered with Parafilm punctured with needles to create ventilation holes. The large opening of the Falcon tube was covered with a double layer of Parafilm containing the liquid diet (100 μL). The artificial feeding devices were placed upside down with the liquid diet side down on a White Light Box (STRATAGENE) to provide bottom-light illu-mination.

The subject of another data set is Empoasca leafhoppers. Kind of data set: In vivo Empoasca choice assay, compounds infiltrated into irMYC2 leaves. Further details: species or system Empoasca decipiens. As to conditions: synthetic CoP 7 μM, CP 100 μM, FP 10 μM in 0.1% DMSO infiltrated into irMYC2 leaves. The method, then:
The spermi-dine-derived metabolites could be excluded as mediators of Empoasca nonhost resistance based on the lack of responses of leafhoppers to the irDH29 and irCV86 lines (FIG. 5). To further explore the involvement of CoP, CP and FP, in vivo Empoasca choice assays were conducted by individually infiltrating physiologically relevant concentrations of synthetic CoP (7 μM), CP (100 μM) and FP (10 μM) into leaves of irMYC2 plants which were devoid of elicited phenolamides (FIG. 9 and FIG. 34).
Two replicates of the 650 RILs from a 26-parent MAGIC population and their 26 parental 5 lines were planted at the WCCER field station, Prescott, Arizona, USA. To elicit a standardized herbivory response, leaves of all RILs, which were in the early-flowering stage were wounded and immediately treated with diluted Manduca sexta oral secretions (W+OS) or left untreated (control) and harvested on dry ice at 1 h and 72h. One week after metabolite sampling, all plants of the field population were screened for natural Empoasca leafhopper numbers and damage; these leafhoppers had opportunistically sampled the N. attenuata plants from neighboring native cu-cumber hostplants. The mQTL and eQTL mapping between SNPs and the relative abundance of each compound or transcript using a set of 646 RILs of the MAGIC population was done with the R package software GAPIT using General linear models (GLM). The multi-omics co-association network was built from correlations among metabolomes, transcriptomes, phytohormones and SNPs. […] Metabolome diversity and specialization and metabolic specificity was calculated using information theory by consider-ing the Shannon entropy of the idMS/MS frequency distributions. […] OS-induced volatile emissions were collected using polydimethylsiloxane (PDMS) tubing from 650 MAGIC RILs planted in the main MPI-CE glasshouse and analyzed bythermal desorption-gas chromatography-mass spectrometry (TD-GC-MS). […]

SMILES strings stand for the structures. “Also recorded” adds a separate entry of the source.

Chain of NaPPO2 (A0A1J6IKE9 entry or part of it): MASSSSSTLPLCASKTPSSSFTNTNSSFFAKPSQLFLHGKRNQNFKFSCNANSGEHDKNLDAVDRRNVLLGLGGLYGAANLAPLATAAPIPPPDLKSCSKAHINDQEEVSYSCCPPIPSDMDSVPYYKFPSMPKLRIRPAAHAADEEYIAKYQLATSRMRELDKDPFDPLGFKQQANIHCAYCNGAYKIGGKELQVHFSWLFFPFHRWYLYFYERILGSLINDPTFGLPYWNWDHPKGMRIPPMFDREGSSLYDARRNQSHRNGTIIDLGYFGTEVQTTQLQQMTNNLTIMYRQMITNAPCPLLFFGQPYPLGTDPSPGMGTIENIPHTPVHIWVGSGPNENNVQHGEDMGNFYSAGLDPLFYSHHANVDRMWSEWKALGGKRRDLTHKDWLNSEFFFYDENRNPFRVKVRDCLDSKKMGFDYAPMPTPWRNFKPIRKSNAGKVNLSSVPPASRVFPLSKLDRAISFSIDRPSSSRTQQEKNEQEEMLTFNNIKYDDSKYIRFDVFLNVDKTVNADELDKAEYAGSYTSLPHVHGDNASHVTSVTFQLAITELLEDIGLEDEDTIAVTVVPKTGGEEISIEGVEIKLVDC

On to `CCC/C=C/C=O` [(E)-2-hexenal], for which the “enzyme activity (m/z 347.19 production)” value at NaPPO1 (NaPPO1 incubated with CP and (E)-2-hexenal) is recorded as “little-to-no activity”; on NaPPO2 (NaPPO2 incubated with CP and (E)-2-hexenal), “little-to-no activity”.
On to `CCC(/C=C/C=O)c1cc(O)c(O)cc1/C=C/C(=O)NCCCCN` (centres unmarked) [CPH, CP-5-(Z)-3-hexenal], for which the Stability entry in data set [1] (Leaf sample collection using Eppendorf tubes without direct contact with liquid N2) is “Yes”; in data set [1] (Leaf sample collection using aluminium foil in liquid N2), “No”; in data set [1] (Purifying using SPE column with argon flow), “Yes”; in data set [1] (Purifying using freeze drying), “No”; in data set [1] (Purifying using rotary evaporator) it was “No”; in data set [1] (Sample extraction buffer pH 4.8), “Yes”. For the same compound, the Stability result in data set [1] (Sample extraction buffer pH 10) was “No”. In data set [1] (ammonium-acetate buffer (pH 4.8)), the stability in buffer entry is reported as “relatively stable”. For the same compound, the stability when concentrated result in data set [1] (concentrated by rotatory evaporation or freeze drying) is “rapidly decomposed”. Also, the “stability at high pH” value in data set [1] (high pH) is given as “unstable”. In addition, in data set [2], the half-life was roughly 22 h. Also, the mortality at 1 µM with Empoasca decipiens (Empoasca decipiens, feed or water, 1 μM in diet containing 10% glucose, after 6 h of feeding, vs control diet, read-out: mortality of E. decipiens) was roughly 100%.
On to `O=C(/C=C/c1ccc(O)c(O)c1)O[C@@H]1C[C@](O)(C(=O)O)C[C@@H](O)[C@H]1O` [CGA, chlorogenic acid], for which the “acceptance as substrate (new products)” value at NaPPO1 (incubated with NaPPO1 and (Z)-3-hexenal) is “not accepted as substrates”; on NaPPO2 (incubated with NaPPO2 and (Z)-3-hexenal) it was “not accepted as substrates”.
For `COc1cc(/C=C/C(=O)NCCCCN)ccc1O` [FP, N-feruloylputrescine], the “preference of Empoasca for irMYC2 plants” value in the data set with Empoasca leafhoppers is “did not alter the preference; also recorded: not affecting leafhopper behavior or performance”. The “changes in mortality rates of E. decipiens compared to glucose controls” value in the data set on Empoasca decipiens is “no significant changes in mortality rates; also recorded: not affecting leafhopper behavior or performance”.
For `NCCCCNC(=O)/C=C/c1ccc(O)c(O)c1` [CP, N-caffeoylputrescine], in that order: “did not alter the preference; also recorded: not affecting leafhopper behavior or performance” and “no significant changes in mortality rates; also recorded: not affecting leafhopper behavior or performance”.
